Assay results as given in patent US7265259B2, “GSK-3β expressed in a transgenic mouse” (Consejo Superior de Investigaciones Clentificas, priority 2000, dated 2007).

System: Tet/GSK-3β mice
Assay: Genotype frequency of double transgenic mice after prenatal doxycycline treatment (perinatal lethality)
Assay type: in vivo, mouse
Details: 14% without treatment, 25% expected
Text: Tet/GSK-3B mice were viable and fertile and appeared normal without pharmacological intervention to suppress transgene expression. This seemed to contradict the previously postulated toxicity of increased GSK-3β expression in brain (Brownlees et al., 1997). […] The Tet/GSK-3β mice were underrepresented (14%, n=401). This might be indicative of lethality due to embryonic overexpression of GSK-3β in Tet/GSK-3β mice.
We had previously observed perinatal transgene expression and lethality in our CamKIIα-tTA driven animal model of Huntington's disease (HD94) (Yamamoto et al., 2000). In the case of HD94 mice, if pregnant mice are given the tetracycline analog doxycycline (2 mg/ml) in the drinking water ad libitum from E15 to birth, only postnatal transgenic expression takes place and the frequency of the four expected genotypes is restored to 25%. We thus decided to apply the same program of perinatal doxycycline treatment to the Tet/GSK-3B mice. […] As expected, prenatal doxycycline treatment normalized to 25% the frequency of Tet/GSK-3β mice and thus, to maximize yield of double transgenic mice in litters, the perinatal doxycycline treatment was routinely employed.

Compound: C[C@H]1c2cccc(O)c2C(=O)C2=C(O)[C@]3(O)C(=O)C(C(N)=O)=C(O)[C@@H](N(C)C)[C@@H]3[C@@H](O)[C@@H]21 [doxycycline]
- frequency of Tet/GSK-3β mice: 25%
